Experimental data reported in patent US5612480A, “2-chloro and 2-bromo derivatives of 1,5-iminosugars” (priority 1995, dated 1997).
Read-outs that look alike come from different tables or passages of the source.

How the values were obtained:
visna virus = assay: Inhibition of visna virus growth, plaque reduction assay in sheep choroid plexus (SCP) cells (Method A); format: cell-based
From the text: Inhibitory activity against visna virus was shown by a conventional plaque reduction assay. Visna virus, a lentivirus genetically very similar to the AIDS virus, is pathogenic for sheep and goats. See Sonigo et al., Cell 42, 369-382 (1985); Haase, Nature 322, 130-136 (1986). Inhibition of visna virus replication in vitro as a useful model for HIV and its inhibition by test compounds has been described by Frank et al., Antimicrobial Agents and Chemotherapy 31 (9), 1369-1374 (1987).
Various illustrative compounds synthesized above were tested for inhibition of visna virus in vitro in a plaque reduction assay (Method A) or for inhibition of HIV-1 in a test which measured reduction of cyto-pathogenic effect in virus-infected syncytium-sensitive Leu-3a-positive CEM cells grown in tissue culture (Method B) as follows:
Sheep choroid plexus (SCP) cells were obtained from American Type Culture Collection (ATCC) catalogue number CRL 1700 and were routinely passaged in vitro in Dulbecco's Modified Eagles (DME) medium supplemented with 20% fetal bovine serum (FBS). SCP cells were passaged once per week at a 1:2 or 1:3 split ratio. Visna was titrated by plaque assay in six-well plates. Virus pools were stored at -70° C.
SCP cells were cultured in 6-well plates to confluence. Wells were washed two times with serum free Minimal Essential Medium (MEM) to remove FBS. 0.2 ml of virus was added per well in MEM supplemented with 4 mM glutamine and gentamycin. After 1 hour adsorption, the virus was aspirated from each well. The appropriate concentration of each compound in 5 ml of Medium 199 (M-199) supplemented with 2% lamb serum, 4 mM glutamine, 0.5% agarose and gentamycin was added to each well. Cultures were incubated at 37° C. in a humidified 5% CO2 incubator for 3-4 weeks. To terminate the test, cultures were fixed in 10% formalin, the agar removed, the monolayers stained with 1% crystal violet and plaques counted. Each compound concentration was run in triplicate. […] 0 is no toxicity observed while 4 is total lysing of the cell monolayer. […]
Control wells without virus were completed to determine the toxicity of compounds.

α-Glucosidase (yeast) = target: T1, α-Glucosidase (yeast) (Saccharomyces cerevisiae, UniProt P53341); assay: Alpha-glucosidase (yeast) inhibition assay, pH 7.4; format: biochemical
T1 construct: purchased Sigma
T1 sequence (P53341 whole entry): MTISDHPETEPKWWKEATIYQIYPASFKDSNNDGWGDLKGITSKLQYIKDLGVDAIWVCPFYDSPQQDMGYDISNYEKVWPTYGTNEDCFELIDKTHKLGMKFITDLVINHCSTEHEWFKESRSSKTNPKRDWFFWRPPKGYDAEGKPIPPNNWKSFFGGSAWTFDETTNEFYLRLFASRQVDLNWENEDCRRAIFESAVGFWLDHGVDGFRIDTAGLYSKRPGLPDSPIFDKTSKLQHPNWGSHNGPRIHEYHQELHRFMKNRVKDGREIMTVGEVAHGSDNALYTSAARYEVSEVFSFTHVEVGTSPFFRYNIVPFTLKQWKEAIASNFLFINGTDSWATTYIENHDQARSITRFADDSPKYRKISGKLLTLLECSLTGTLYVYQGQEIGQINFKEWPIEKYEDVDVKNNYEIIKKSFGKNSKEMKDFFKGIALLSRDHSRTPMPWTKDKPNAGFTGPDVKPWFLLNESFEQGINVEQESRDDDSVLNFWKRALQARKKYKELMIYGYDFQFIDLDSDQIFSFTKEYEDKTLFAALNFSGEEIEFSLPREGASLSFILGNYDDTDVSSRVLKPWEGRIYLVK
Protocol: (§1) Yeast alpha-glucosidase and almond beta-glucosidase activities were measured by a modification of the method of Evans, et al., Phytochemistry 22, 768-770 (1983). The modifications included (1) assay of activities at pH 7.4 in HEPES (N-2-hydroxyethylpiperazine-N'-2-ethanesulfonic acid) buffer, 2) measurement in 96 well microtiter plates and (3) inclusion of 10% DMSO in control and test samples.
(§2) The release of p-nitrophenol from the substrate p-nitrophenylglycoside was measured spectrophotometrically in the presence and absence of test compound. Each assay included a known inhibitor of the enzyme as a standard. IC50 values were determined for compounds which inhibited the enzymes more than 50% at a 1 millimolar concentration.
(§3) To 100 μl 50 mM HEPES buffer, pH 7.4, in a microtiter plate, add 20 μl test compound in DMSO (DMSO alone in control), 40 μl (0.013 units) yeast alpha-glucosidase (Sigma) in HEPES buffer and pre-incubate at room temperature for 15 minutes. Add 40 μl 1.25 mM p-nitrophenyl-alpha-D-glucopyranoside (Sigma) in HEPES buffer, as substrate, and monitor absorbance change at 405 nm in a Biotek EIA Autoreader. Absorption change was measured at 15 to 25 minutes (reaction was linear for at least 30 minutes). Each sample was tested in triplicate. IC50 values were determined from the linear portion of the log concentration vs % inhibition curve obtained from a minimum of 3 points. Deoxynojirimycin was used as standard inhibitor.

β-Glucosidase (almond) [1] = assay: Beta-glucosidase (almond) inhibition assay, pH 7.4; format: biochemical
Protocol: as §1, §2
as §3, with “μl (0.136” for “μl (0.013”, “units) beta-glucosidase” for “units) yeast alpha-glucosidase”, “mM p-nitrophenyl-beta-D-glucopyranoside” for “mM p-nitrophenyl-alpha-D-glucopyranoside (Sigma)”, “as substrate” for “as substrate,”, “(reaction is” for “(reaction was”, “points. Castanospermine” for “points. Deoxynojirimycin”

β-Glucosidase (almond) [2] = assay: Beta-glucosidase (almond) inhibitor assay, pH 4.8; format: biochemical
Protocol: as §1, §2
To 100 μl 50 mM sodium citrate buffer, pH 4.8, in a microtiter plate, add 15 μl test compound in DMSO (DMSO alone in control), 20 μl (0.017 units) beta-glucosidase (Sigma) in citrate buffer and pre-incubate at room temperature for 15 minutes. Add 25 μl 2.50 mM p-nitrophenyl-beta-D-glucopyranoside in citrate buffer, as substrate. Incubate at room temperature 20 minutes (reaction is linear for at least 30 minutes). Add 50 μl 0.4 M NaOH. Read absorption change at 405 nm in a Biotek EIA Autoreader. Each sample was tested in triplicate. IC50 values were determined from the linear portion of the log concentration vs % inhibition curve obtained from a minimum of 3 points. Castanospermine was used as standard inhibitor.

[3] = pH 7.4, read-out: Percent inhibition of α-glucosidase (yeast)
[4] = 100 μM, pH 7.4, read-out: Percent inhibition of α-glucosidase (yeast)
[5] = 1000 μM, pH 7.4, read-out: Percent inhibition of α-glucosidase (yeast)

Row | SMILES | % inhibition of visna virus growth (visna virus; 0.001 mM) [%] | % inhibition of visna virus growth (visna virus; 0.01 mM) [%] | % inhibition of visna virus growth (visna virus; 0.1 mM) [%] | % inhibition of visna virus growth (visna virus; 1.0 mM) [%] | inhibition at 1 µM (α-Glucosidase (yeast); [3]) [%] | inhibition at 10 µM (α-Glucosidase (yeast); [3]) [%] | inhibition at 100 µM (α-Glucosidase (yeast); [3]) [%] | inhibition at 1000 µM (α-Glucosidase (yeast); [3]) [%] | Percent inhibition of β-glucosidase (almond) (β-Glucosidase (almond) [1]; 100 μM) [%] | Percent inhibition of β-glucosidase (almond) (β-Glucosidase (almond) [1]; 1000 μM) [%] | Percent inhibition of β-glucosidase (almond) (β-Glucosidase (almond) [2]; 100 μM) [%] | Percent inhibition of β-glucosidase (almond) (β-Glucosidase (almond) [2]; 1000 μM) [%] | inhibition at 100 µM (α-Glucosidase (yeast); [4]) [%] | inhibition at 1000 µM (α-Glucosidase (yeast); [5]) [%] | inhibition at 1000 µM (visna virus; Visna-maedi virus, 1.0 mM) [%]
1 | OC[C@@H]1[C@@H](O)[C@H](O)[C@@H](Cl)CN1CCCc1ccccc1 [Example 30, 2-Chloro-1,2,5-trideoxy-1,5-(3-phenyl)propylimino-D-glucitol] | 20 | 57 | 97 | 100 | 4.6 | 46.4 | 87.3 | 97.5 | 66.2 | 92.5 | 47.6 | 84.7 |  |  | 
2 | CCCCN1[C@H](CO)[C@@H](O)[C@H](O)[C@H]1COC(=O)c1ccccc1 [Example 58, 2,5-(Butylimino)-2,5-dideoxy-D-mannitol, 1-benzoate] |  |  |  |  |  |  |  |  | -7.5 | 13.2 | 1.8 | 18.6 | 36.2 | 44 | 
3 | CCCCN1C[C@H](Sc2nnnn2C)[C@@H](O)[C@H](O)[C@H]1CO [56(a), 1,5-(Butylimino)-1,5-dideoxy-2-S-(1-methyl-1H-tetrazol-5-yl) 2-thio-D-glucitol] |  |  |  |  |  |  |  |  | -3.4 | -15.8 | -0.9 | 13.7 | 18.1 | -8.2 | 
4 | CCCCNC(=O)O[C@H]1CN(CCCC)[C@H](CO)[C@@H](O)[C@@H]1O [Example 36] |  |  |  |  |  |  |  |  | -2.4 | 0.3 | 4.3 | 3.1 | 11 | -6.8 | 21
5 | CCCCN1[C@H](CN)[C@@H](O)[C@H](O)[C@H]1CO [Example 48, 1-Amino-2,5-(butylimino)-1,2,5-trideoxy-D-mannitol] |  |  |  |  |  |  |  |  | 6.9 | 43.1 | 9.5 | 27.9 | 24.6 | 60.9 | 
6 | CCCCN1[C@H](CO)[C@@H](O)[C@H](O)[C@H]1CC#N [Example 54, 3,6-(Butylimino)-2,3,6-trideoxy-D-manno-heptanonitrile] |  |  |  |  |  |  |  |  | -7.8 | -7.9 | 0.1 | 4.1 | 23.5 | 22.6 | 
7 | CCCCCCCCCN1C[C@H](Cl)[C@@H](O)[C@H](O)[C@H]1CO [Example 29, 2-Chloro-1,2,5-trideoxy-1,5-(nonylimino)-D-glucitol] | 23 | 53 | 100 |  | 11.5 | 61.5 | 91.8 | 102 | 54.7 | 91.9 | 33.1 | 52.8 |  |  | 
8 | CCCCN1[C@H](CO)[C@@H](O)[C@H](O)[C@H]1CNC(C)=O [Example 51, 1-(Acetylamino)-2,5-(butylimino)-1,2,5-trideoxy-D-mannitol] |  |  |  |  |  |  |  |  | -3.8 | 4.4 | 6 | 26 | 27.1 | 39.3 | 
9 | CCCCN1C[C@H](C#N)[C@@H](O)[C@H](O)[C@H]1CO [Example 53, 1,5-(Butylimino)-2-cyano-1,2,5-trideoxy-D-glucitol] |  |  |  |  |  |  |  |  | -4.2 | -7.3 | 1.6 | 9.5 | 20.1 | -29.4 | 
10 | CCCCN1[C@H](CO)[C@@H](O)[C@H](O)[C@H]1CSc1nnnn1C [56(b), 2,5-(Butylimino)-2,5-dideoxy-1S-(1-methyl-1H-tetrazol-5-yl) 1-thio-D-mannitol] |  |  |  |  |  |  |  |  | -6 | 5.7 | 7.5 | 29.4 | 15.6 | 15.7 | 
11 | CCCCN(CCCC)C[C@@H]1[C@@H](O)[C@H](O)[C@@H](CO)N1CCCC [Example 49, 2,5-(Butylimino)-1-(dibutylamino)-1,2,5-trideoxy-D-mannitol] |  |  |  |  |  |  |  |  | -5.3 | 0.2 | 10.9 | 18.8 | -12.6 | -20.5 | 
